The values below come from US8841233B2, “Herbicidal compositions comprising 4-amino-3-chloro-5-fluoro-6-(4-chloro-2-fluoro-3-methoxyphenyl) pyridine-2-carboxylic acid or a derivative thereof and 4-hydroxyphenyl-pyruvate dioxygenase (HPPD) inhibitors” (Dow Agrosciences LLC, priority 2012, dated 2014).

What all share (assay): Post-emergence foliar-applied weed control, greenhouse (Example I)
In test [1] the test system is DIGSA. Format: in vivo, Digitaria sanguinalis (L.) Scop. An excerpt: (§1) Evaluation of Post-emergence Foliar-Applied Herbicidal Mixtures for Weed Control in Direct Seeded Rice
(§2) Seeds or nutlets of the desired test plant species were planted in a soil matrix prepared by mixing a loam or sandy loam soil (e.g., 28.6 percent silt, 18.8 percent clay, and 52.6 percent sand, with a pH of about 5.8 and an organic matter content of about 1.8 percent) and calcareous grit in an 80 to 20 ratio. The soil matrix was contained in plastic pots with a volume of 1 quart and a surface area of 83.6 square centimeters (cm^2). When required to ensure good germination and healthy plants, a fungicide treatment and/or other chemical or physical treatment was applied. The plants were grown for 8-22 days in a greenhouse with an approximate 14 h photoperiod which was maintained at about 29° C. during the day and 26° C. during the night. Nutrients (Peters Excel® 15-5-15 5-Ca 2-Mg and iron chelate) were applied in the irrigation solution as needed and water was added on a regular basis. Supplemental lighting was provided with overhead metal halide 1000-Watt lamps as necessary. The plants were employed for testing when they reached the first through fourth true leaf stage.
(§3) Treatments consisted of the acid or esters of 4-amino-3-chloro-5-fluoro-6-(4-chloro-2-fluoro-3-methoxy-phenyl)pyridine-2-carboxylic acid (Compound A), each formulated as an SC (suspension concentrate), and various herbicidal components alone and in combination. Forms of Compound A were applied on an acid equivalent basis.
(§4) Other herbicidal components were applied on an active ingredient basis and included 4-hydroxyphenyl pyruvate dioxygenase (HPPD)-inhibiting herbicides mesotrione formulated as Callisto®, sulcotrione formulated as Mikado®, pyrazolynate formulated as Sunbird® 10% GR, and benzobicyclon formulated as Benzobicyclon 3.5%.
(§5) Treatment requirements were calculated based upon the rates being tested, the concentration of active ingredient or acid equivalent in the formulation, and a 12 mL application volume at a rate of 187 L/ha.
(§6) For treatments comprised of formulated compounds, measured amounts of compounds were placed individually in 25 mL glass vials and diluted in a volume of 1.25% (v/v) Agri-Dex® crop oil concentrated to obtain 12× stock solutions. […] Application solutions were prepared by adding an appropriate amount of each stock solution (e.g., 1 mL) and diluted to the appropriate final concentrations with the addition of 10 mL of an aqueous mixture of 1.25% (v/v) crop oil concentrate so that the final spray solutions contained 1.25+/−0.05% (v/v) crop oil concentrate.
(§7) For treatments comprised of formulated and technical compounds, weighed amounts of the technical materials were placed individually in 25 mL glass vials and dissolved in a volume of 97:3 v/v acetone/DMSO to obtain 12× stock solutions, and measured amounts of the formulated compounds were placed individually in 25 mL glass vials and diluted in a volume of 1.5% (v/v) crop oil concentrate or water to obtain 12× stock solutions. […] Application solutions were prepared by adding an appropriate amount of each stock solution (e.g., 1 mL) and diluted to the appropriate final concentrations with the addition of an appropriate amount of an aqueous mixture of 1.5% (v/v) crop oil concentrate so that the final spray solutions contained 1.25% (v/v) crop oil concentrate. As required, additional water and/or 97:3 v/v acetone/DMSO was added to individual application solutions so that the final acetone and DMSO concentrations of the application solutions being compared were 8.1% and 0.25%, respectively.
(§8) All stock solutions and applications solutions were visually inspected for compound compatibility prior to application. Spray solutions were applied to the plant material with an overhead Mandel track sprayer equipped with a 8002E nozzles calibrated to deliver 187 L/ha over an application area of 0.503 m^2 at a spray height of 18 to 20 inches (46 to 50 cm) above average plant canopy height. […]

Test [2] deals with ECHCO. Format: in vivo, Echinochloa colona (L.) Link.
From the text: as §1, §2, §3, §4, §5, §6, §7, §8

The test system of test [3] is BRAPP. The class given is in vivo.
From the text: as §1, §2, §3, §4, §5, §6, §7, §8

SMILES strings stand for the structures. Several values for one entry are separate records, joined by “and”; a condition that tells them apart may be missing. Equal values may be shown once.

As for `COc1c(Cl)ccc(-c2nc(C(=O)O)c(Cl)c(N)c2F)c1F` [Compound A Acid, 4-amino-3-chloro-6-(4-chloro-2-fluoro-3-methoxyphenyl)-5-fluoropyridine-2-carboxylic acid], the “Visual Weed Control (%) - 20 DAA DIGSA Obs” value in test [1] (4.38 gae/ha) turned out to be 40%; in test [1] (8.75 gae/ha), 45%; in test [1] (17.5 gae/ha), 45%. Besides, the “Visual Weed Control (%) - 20 DAA ECHCO Obs” value is listed as 40% in test [2] (4.38 gae/ha), 60% in test [2] (8.75 gae/ha) and 85% in test [2] (17.5 gae/ha). In addition, the “Visual Weed Control (%) - 22 DAA ECHCO Obs” value in test [2] (5.3 gae/ha) and in test [2] (10.6 gae/ha) was 65% in each case. Further, the “Visual Weed Control (%) - 20 DAA BRAPP Obs” value was 60% and 80% in test [3] (8.75 gae/ha); 85% in test [3] (17.5 gae/ha).
With `COc1c(Cl)ccc(-c2nc(C(=O)OCc3ccccc3)c(Cl)c(N)c2F)c1F` [Compound A Benzyl Ester, benzyl ester of 4-amino-3-chloro-5-fluoro-6-(4-chloro-2-fluoro-3-methoxy-phenyl)pyridine-2-carboxylic acid], the “Visual Weed Control (%) - 20 DAA DIGSA Obs” value in test [1] (4.38 gae/ha) worked out at 25%; in test [1] (8.75 gae/ha), 40%; in test [1] (17.5 gae/ha) it was 50%; in test [1] (35 gae/ha), 38%. In test [2] (4.38 gae/ha), the “Visual Weed Control (%) - 20 DAA ECHCO Obs” value stood at 40%. In addition, the “Visual Weed Control (%) - 22 DAA ECHCO Obs” value in test [2] (4.38 gae/ha) came out at 30%; in test [2] (8.75 gae/ha), 55%. Further, the results for the “Visual Weed Control (%) - 20 DAA BRAPP Obs” value in test [3] (4.38 gae/ha) and in test [3] (8.75 gae/ha) were 50% and 70%, respectively.
